Peptide text beside a SMILES is read from it.
Legend:
Assay type in all cases: physicochemical
[1] = Rheological properties at various concentrations (rheometer, stress sweep); conditions: 37° C., 10 rad/s; for Loss Modulus (G')* / Storage Modulus (G')*: at 1 Pa of oscillation stress
Description: The rheological properties of the ST14 (SEQ ID NO:2) were evaluated at various concentrations using a rheometer (AR500, TA Instruments) with 40 mm plates. Peptide solution (700μL) was placed on the rheometer plate and excess solution was gently removed by Kimwipes; measurements were performed after 2 minutes of relaxation time at 37° C. The storage modulus, loss modulus, and viscosity (η′) were measured at 37° C. with the plates placed at a measuring geometry gap of 300 μm, and stress sweep tests were performed at 0.1 Pa˜1000 Pa of oscillation stress with angular frequency at 10 rad/s.

[2] = Stability to autoclave sterilization, mass spectrometry before and after autoclave; conditions: 121° C. for 25 min, high pressure saturated steam; mass spec before and after; N- and C-terminus not protected
Excerpt: Sterilization is a very important step in the manufacturing process for all biomaterials, including the self-assembling peptide solutions.

[3] = Dissolution in deionized water and visual appearance of peptide solution; conditions: deionized water
[4] = Congo Red assay of gel formation in PBS buffer (pH 7.4); conditions: 1% Congo Red in PBS buffer pH 7.4
Description: A Congo Red assay was performed to determine gel formation of peptide solutions in a PBS buffer solution (pH 7.4). 100 μl of each gel at varying concentrations were plated on a glass slide. After 30 seconds, 500 μl of a 1% Congo Red solution in PBS buffer (pH 7.4) was added around and on top of each of the gel aliquots and then the excess Congo Red solution was wiped off prior to examination.
Visualization of gel formation determined the success or failure of gelation at each concentration.

[5] = Atomic Force Microscopy (AFM) morphological study of peptide nano structures; conditions: 100 μM peptide solution on mica, rinsed, air-dried, tapping mode
Description: Each sample was left on the mica for about 30 seconds (s) and then rinsed with aliquots of 100 μl of Milli-Q (ultrapure) water to remove unattached peptides. The sample on the mica surface was then air-dried for AFM observation. AFM was performed with Asylum-1 MFP-3D AFM System (Asylum Research, Santa Barbara, Calif.) using a tapping mode. The images utilized an Olympus Si tip (AC240FS). The cantilever's free resonance frequency was 70 kHz.

SMILES	Max. Viscosity (max η') ([1]; Concentration 1)	Loss Modulus (G')* ([1]; Concentration 1)	Storage Modulus (G')* ([1]; Concentration 1)	Max. Viscosity (max η') ([1]; Concentration 1.5)	Loss Modulus (G')* ([1]; Concentration 1.5)	Storage Modulus (G')* ([1]; Concentration 1.5)	Max. Viscosity (max η') ([1]; Concentration 2)	Loss Modulus (G')* ([1]; Concentration 2)	Storage Modulus (G')* ([1]; Concentration 2)	Max. Viscosity (max η') ([1]; Concentration 2.5)	Loss Modulus (G')* ([1]; Concentration 2.5)	Storage Modulus (G')* ([1]; Concentration 2.5)	degradation during autoclave treatment [2]	appearance in solution ([3]; 1 percent w/v to 5 percent w/v)	solution consistency ([3]; 1 percent w/v to 5 percent w/v)	gel formation ([4]; 0.5% peptide)	AFM morphology (nano structure) [5]	solution consistency ([3]; 5 percent w/v)	gel formation ([4]; below 1% peptide)
CC(O)C(NC(=O)C(CO)NC(=O)C(NC(=O)C(CO)NC(=O)C(NC(=O)C(CO)NC(=O)C(NC(=O)C(CO)NC(=O)C(NC(=O)C(CO)NC(=O)C(NC(=O)C(CO)NC(=O)C(NC(=O)C(N)CO)C(C)O)C(C)O)C(C)O)C(C)O)C(C)O)C(C)O)C(=O)O (stereo not drawn) [ST14, STSTSTSTSTSTST] (H-STSTSTSTSTSTST-OH; configuration not given here)	1.2 Pa-s	11.4 Pa	67 Pa	1.5 Pa-s	9.8 Pa	94 Pa	2.0 Pa-s	17.3 Pa	136 Pa	2.2 Pa-s	17.1 Pa	167 Pa	did not degrade	translucent	formed thick solutions	did not form a gel			
CC(O)C(N)C(=O)NC(C(=O)NC(C(=O)NC(C(=O)NC(C(=O)NC(C(=O)NC(C(=O)NC(C(=O)NC(C(=O)NC(C(=O)NC(C(=O)NC(C(=O)NC(C(=O)NC(C(=O)O)C(C)O)C(C)O)C(C)O)C(C)O)C(C)O)C(C)O)C(C)O)C(C)O)C(C)O)C(C)O)C(C)O)C(C)O)C(C)O (stereo not drawn) [Peptide T14, TTTTTTTTTTTTTT]													did not degrade	translucent			Aggregates	formed a thick solution	did not form a gel

From patent publication US11497833B2, “Self-assembling peptides comprising non-Ionic polar amino acids” (3-D Matrix, Ltd., priority 2014, dated 2022)
